Results reported in US6100236A, “Method and composition for treating thrombosis” (La Jolla Cancer Research Foundation, priority 1995, dated 2000).
“And” between values parts separate entries of the source, which are not always exact repeats. Equal entries are not always repeated.

How the values were obtained:
platelets [1] = assay: Ex vivo platelet aggregation after peptide injection in canine coronary thrombosis model; parameters: species or system dog; conditions: for Ex vivo reduction of aggregation relative to control levels: 3 mg/kg
Description: For all ex vivo studies (see FIG. 3), control aggregation values were standardized to the percentages of light transmission observed in PRP and PPP samples (0% and 100%, respectively).
(§1) Animals were randomly assigned to two treatment groups: vehicle control (i.e., normal saline) or RGD peptides at various concentrations. Peptides were administered intra-atrially in both bolus and continuous injections. […] A continuous infusion of the same peptide was then started immediately after completion of this initial injection. Animals that received a 5 mg/kg bolus. also received a 5 mg/kg/hr infusion, whereas animals that received a 10 mg/kg bolus also received a 10 mg/kg/hr infusion. The anti-thrombotic effects of the peptides were monitored until 30 minutes after the occurrence of a persistent, occlusive thrombus or five hours after the initiation of electrical stimulation (whichever resulted first). If an occlusive thrombus had not developed within four hours after the initiation of current, the peptide infusion was stopped.
Platelet counts and ex vivo aggregation studies were performed one hour before and 1, 3, and 5 hours after application of anodal direct current.
Platelet aggregation was also determined ex vivo at one, three, and five hours after current application. […]
The average aggregation values determined in these studies for all of the peptide treatments are depicted in FIG. 3. […] The control responses in these studies were 70-80% of maximum. […] Here the control responses were 55-80% of maximum.

[2] = system: Electrically induced canine coronary thrombosis; assay: Electrically induced canine coronary thrombosis, time to full occlusion; type: in vivo, dog
Description: Male mongrel dogs weighing 14 to 20 kg were selected based on proper aggregation of their platelets in response to arachidonic acid, collagen, and adenosine disphosphate (ADP) and based on similar weights and hemodynamic properties.
Before surgery, the animals were anesthetized with sodium pentobarbital (30 mg/kg, i.v.) and then intubated and ventilated on room air with positive pressure using a respirator (Harvard Apparatus, S. Natick, Mass.) at a volume of 30 ml/kg and a frequency of 12 breaths/min. Surgery, performed under aseptic conditions, was begun with the placement of cannulae into the left carotid artery and jugular vein for monitoring arterial blood pressure (Statham P23 pressure transducer, Gould, Inc., Cardiovascular Products, Oxnard, Calif.) and administering intravenous fluids.
The heart was exposed via a left thoracotomy through the 5th intercostal space. A 2-cm segment of the left circumflex coronary artery (LCCA) was isolated from surrounding tissue by blunt dissection. […] The intra-coronary electrode was constructed by attaching a 25-gauge hypodermic needle tip to a 30-gauge Teflon-insulated silver-coated copper wire. The mechanical occluder was constructed of stainless steel in a C shape with a Teflon screw (2 mm diameter) on top. It was adjusted to control vessel circumference and decrease the reactive hyperemic flow due to a 10-sec (full) occlusion by 50-70% without affecting basal coronary blood flow (FIG. 1). A monopolar epicardial electrode was sutured to the surface of the ventricle in the region of LCCA distribution to monitor ischemic changes in the electrocardiogram (ECG). The left atrium was cannulated with polythylene tubing for administration of the peptide. Continuous recordings of blood pressure, limb lead II ECG, epicardial electrogram, and mean and phasic LCCA blood flow were obtained on a Model 7 polygraph (Grass Instrument Co., Quincy, Mass.).
One hour after the completion of surgery, a 100 micro-amp continuous anodal direct current delivered from a 9 volt nickel-cadmium battery was applied to the intimal surface of the LCCA. The anode of the battery was in series with a 250,000 ohm potentiometer and the intraluminal coronary artery electrode. The electric circuit was completed by placing the cathode in a subcutaneous site. Electrical stimulation was applied for three hours. At the conclusion of each experiment, the heart was fibrillated electrically and quickly removed, and the LCCA was dissected free as far as possible to verify the position of the implanted anodal electrode.
as §1
Coronary thrombosis was quantified as the time to full occlusion. The effects of the various peptide treatments on coronary thrombosis is illustrated in FIG. 4.

platelets [3] = assay: Ex vivo ADP-stimulated platelet aggregation in baboon PRP; conditions: animal 2; ADP 10 μm; PRP at 0, 1 and 2 hours
Description: At one- and two-hour time points, template bleeding times were measured, and blood samples were drawn to assess the hematology aggregation studies. Platelet aggregation studies were performed as described in Example V using ADP as the stimulus.
In addition, platelet aggregation studies were conducted on PRP derived from the second animal. Whole blood was drawn at three time points (0, 1 and 2 hours) of both control and experimental shunts.

[4] = biological target: T1, Fibronectin receptor (Fn-R) (Homo sapiens, UniProt P05556+P08648); assay: Competitive ELISA for fibronectin receptor binding; conditions: purified receptor from human placenta, read-out: FnR Binding (IC50)
T1 construct: similarly purified from (100 mM) octyl glucoside-extracted human placenta; from tissue; host or cells: human placenta
T1 sequence (P08648 42-894 limits assumed): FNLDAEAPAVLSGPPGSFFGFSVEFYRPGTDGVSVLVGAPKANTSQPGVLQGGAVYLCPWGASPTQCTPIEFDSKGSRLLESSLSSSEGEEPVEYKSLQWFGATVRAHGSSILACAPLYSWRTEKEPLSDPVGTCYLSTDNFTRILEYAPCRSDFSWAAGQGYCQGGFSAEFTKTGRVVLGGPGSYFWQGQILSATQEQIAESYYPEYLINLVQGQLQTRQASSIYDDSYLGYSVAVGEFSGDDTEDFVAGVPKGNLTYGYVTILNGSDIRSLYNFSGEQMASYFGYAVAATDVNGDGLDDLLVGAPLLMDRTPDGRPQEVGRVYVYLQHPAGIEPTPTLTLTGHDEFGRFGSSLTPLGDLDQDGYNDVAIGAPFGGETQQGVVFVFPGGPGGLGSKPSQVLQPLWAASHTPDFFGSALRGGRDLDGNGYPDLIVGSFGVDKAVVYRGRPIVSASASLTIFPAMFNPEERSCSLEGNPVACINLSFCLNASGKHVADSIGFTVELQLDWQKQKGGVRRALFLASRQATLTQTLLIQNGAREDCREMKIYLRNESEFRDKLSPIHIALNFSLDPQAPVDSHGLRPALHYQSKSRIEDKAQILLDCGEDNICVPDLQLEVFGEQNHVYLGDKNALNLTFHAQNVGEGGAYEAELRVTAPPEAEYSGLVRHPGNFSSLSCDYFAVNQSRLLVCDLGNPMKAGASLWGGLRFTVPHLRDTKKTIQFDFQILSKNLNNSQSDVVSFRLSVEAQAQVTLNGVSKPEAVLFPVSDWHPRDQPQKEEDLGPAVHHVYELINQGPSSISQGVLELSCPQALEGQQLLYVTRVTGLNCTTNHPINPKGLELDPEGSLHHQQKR
T1 sequence (P08648 895-1049 partner limits assumed): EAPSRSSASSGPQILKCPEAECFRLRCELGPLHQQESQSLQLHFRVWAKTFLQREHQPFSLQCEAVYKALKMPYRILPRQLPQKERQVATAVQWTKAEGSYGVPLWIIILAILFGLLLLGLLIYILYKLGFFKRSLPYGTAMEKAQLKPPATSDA
T1 sequence (P05556 21-798): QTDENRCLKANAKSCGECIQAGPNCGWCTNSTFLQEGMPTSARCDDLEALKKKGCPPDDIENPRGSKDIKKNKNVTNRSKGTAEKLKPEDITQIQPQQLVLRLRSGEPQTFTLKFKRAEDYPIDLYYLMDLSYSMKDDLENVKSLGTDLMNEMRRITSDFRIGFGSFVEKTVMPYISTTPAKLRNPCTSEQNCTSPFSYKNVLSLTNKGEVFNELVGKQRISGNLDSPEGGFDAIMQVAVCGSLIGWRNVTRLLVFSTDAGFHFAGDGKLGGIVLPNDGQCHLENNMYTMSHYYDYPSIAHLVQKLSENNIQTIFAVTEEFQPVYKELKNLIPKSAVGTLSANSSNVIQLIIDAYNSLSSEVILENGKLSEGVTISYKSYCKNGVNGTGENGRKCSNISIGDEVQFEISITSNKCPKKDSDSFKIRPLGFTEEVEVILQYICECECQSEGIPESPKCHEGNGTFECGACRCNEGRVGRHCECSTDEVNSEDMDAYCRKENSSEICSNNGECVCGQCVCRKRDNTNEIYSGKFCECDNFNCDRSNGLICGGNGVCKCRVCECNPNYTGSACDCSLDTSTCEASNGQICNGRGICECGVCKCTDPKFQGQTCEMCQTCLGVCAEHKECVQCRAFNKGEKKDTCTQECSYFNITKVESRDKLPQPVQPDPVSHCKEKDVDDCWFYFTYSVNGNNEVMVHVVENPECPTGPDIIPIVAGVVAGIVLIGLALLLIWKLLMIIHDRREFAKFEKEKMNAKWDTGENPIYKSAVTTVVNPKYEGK
Description: Peptide binding to purified Fn-R was determined by using a competitive enzyme-linked immunosorbent assay (ELISA) in which fibronectin is immobilized and the binding of solubilized Fn-R is detected with labeled anti-FnR antibodies in the presence of various concentrations of peptide analogue.
Microtiter plates were coated with 110 μl of human fibronectin (at 2 μg/ml) in TBS. The plates were washed three times with TBS that contained 0.05% Tween 20. If necessary, peptides were added after this washing in 10 microliter aliquots. The fibronectin receptor was then added in 2-fold serial dilutions with TBS containing 20 mM octyl glucoside and 2 mM MnCl2. The plates were incubated for three hours at room temperature, washed with 200 μl of the above TBS-Tween buffer. 100 μl of affinity-purified rabbit anti-human fibronectin receptor antibody was added to the wells and the plates were incubated for an additional two hours, washed twice with TBS-Tween and then distilled water. Affinity-purified goat anti-rabbit IgG conjugated to horseradish peroxidase (100 μl) was then added to each well. Bonding reactions were incubated for 16 hours at room temperature. The following day, the plates were washed twice with TBS-Tween and then distilled water. […]
IC50 s for FnR were determined by ELISA (Example III).

[5] = 10 mg/kg injection, all three time points
[6] = 10 mg/kg bolus + 10 mg/kg/hr infusion, intra-atrial

GPenGHRGDLRCA
Ex vivo inhibition of ADP-stimulated aggregation (platelets [1]; 10 mg/kg injection, 1, 3 and 5 h): substantially inhibited | Ex vivo inhibition of AA-stimulated aggregation relative to control levels (platelets [1]; [5]): 43-70% | Ex vivo inhibition of collagen-stimulated aggregation relative to control levels (platelets [1]; [5]): 12-50% | Effect on time to full coronary occlusion [2, 6]: did not significantly influence | Ex vivo platelet response to ADP (platelets [3]): completely unresponsive

RPenGHRGDWRCR
Ex vivo inhibition of platelet activation by collagen (platelets [1]; 5 mg/kg injection): near-maximal inhibition | Ex vivo platelet response to ADP and AA (platelets [1]; 5 mg/kg injection, all three time points): completely unresponsive | Ex vivo anti-aggregation effect at low platelet count (platelets [1]; 5 mg/kg injection, platelet count ca. one-third of normal (104,000/ml vs. 361,000/ml)): more pronounced | Effect on time to full coronary occlusion ([2]; 5 mg/kg bolus + 5 mg/kg/hr infusion, intra-atrial): significantly prolonged the time to occlusion | Thrombus formation in animals with low platelet levels ([2]; 5 mg/kg, circulating platelet levels one-third of normal): able to prevent thrombus formation | Effect on time to full coronary occlusion [2, 6]: completely prevented occlusion

RPenGRGDWPCR
Ex vivo reduction of aggregation relative to control levels (platelets [1]; one hour): 20-58% | Ex vivo reduction of aggregation relative to control levels (platelets [1]; three and five hours, listed as 4R): 75-100% and 72-100% | Ex vivo platelet response to all modes of stimulation (platelets [1]; 10 mg/kg injection, all time points): unresponsive to all modes of stimulation | Effect on time to full coronary occlusion ([2]; 3 mg/kg): ineffective | Effect on time to full coronary occlusion [2, 6]: prevented occlusion throughout the duration of the study

VRGDSPDG
IC50 [4]: 40 nM

YRGDSPDG
IC50 [4]: 1100 nM
